# Test results as given in patent US20230174507A1, “IMIDAZOLE 3-OXIDE DERIVATIVE BASED ACSS2 INHIBITORS AND METHODS OF USE THEREOF” (METABOMED LTD., priority 2020, published 2023).
# Experiments:
# human ACSS1 protein = biological target: T1, human ACSS1 protein (Homo sapiens, UniProt Q9NUB1); assay: ACSS1 cell-free activity assay (pyrophosphatase-coupled, Biomol green); assay type: biochemical; conditions: 5 nM human ACSS1, 30 minutes at room temperature, absorbance at 620 nm; for IC50: read-out: ACSS1 Biochemical IC50
# T1 construct: purchased MyBioSource
# T1 sequence (Q9NUB1 38-689): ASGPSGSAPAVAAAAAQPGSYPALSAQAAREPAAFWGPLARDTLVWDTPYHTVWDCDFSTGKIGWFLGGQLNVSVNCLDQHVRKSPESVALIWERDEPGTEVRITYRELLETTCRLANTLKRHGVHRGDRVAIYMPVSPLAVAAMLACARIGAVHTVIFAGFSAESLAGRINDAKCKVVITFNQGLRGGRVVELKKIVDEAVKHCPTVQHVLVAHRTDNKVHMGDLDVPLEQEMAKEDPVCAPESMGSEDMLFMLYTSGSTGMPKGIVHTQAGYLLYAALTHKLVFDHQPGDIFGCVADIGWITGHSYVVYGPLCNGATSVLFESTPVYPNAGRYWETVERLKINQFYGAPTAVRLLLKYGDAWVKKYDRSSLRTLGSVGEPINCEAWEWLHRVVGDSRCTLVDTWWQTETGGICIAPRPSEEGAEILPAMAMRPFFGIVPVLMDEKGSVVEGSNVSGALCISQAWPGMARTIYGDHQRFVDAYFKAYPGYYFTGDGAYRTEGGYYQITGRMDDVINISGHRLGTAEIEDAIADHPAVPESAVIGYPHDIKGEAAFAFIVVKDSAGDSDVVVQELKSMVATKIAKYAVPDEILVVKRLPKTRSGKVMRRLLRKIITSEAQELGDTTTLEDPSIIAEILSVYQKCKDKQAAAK
# Summary of the method: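 5 nM human ACSS1 incubated 30 min at RT with compound in pH 7.5 Hepes buffer with 15 μM CoA, 5 mM acetate, 300 μM ATP, 2 mM MgCl2 and pyrophosphatase. Released phosphate detected with Biomol Green (30 min), absorbance 620 nm. IC50 from constrained non-linear regression.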
# [1] = biological target: T2, ACSS2 in MDA-MB-468 cells (Homo sapiens, UniProt Q9NR19); assay: Cellular fatty-acid IC50: 13C-acetate incorporation into fatty acids (palmitate), LC-MS; assay type: cell-based; conditions: hypoxic conditions (1% O2), 75% charcoal stripped serum, 5 hours, 13C-acetate into palmitate, read-out: Cellular Fatty-acid IC50 High Serum MDA468
# T2 construct: endogenous in cells; host or cells: MDA-MB-468 cells, hypoxia (1% O2)
# Experimental: Cellular Fatty-Acid IC50 Determination:
# The cellular activity of ACSS2 was measured in MDA-MB-468 cells under hypoxic conditions by tracing the incorporation of labelled carbons from ^13C-acetate into newly synthesized fatty acids. The assay was performed using 75% charcoal stripped serum (high serum conditions).
# MDA-MB-468 cells were seeded in 12-well plates (0.35×10^6 cells per well) in plating medium (Dulbecco's Modified Eagle Medium containing 25 mM D-glucose, 1 mM sodium pyruvate, 10% v/v fetal bovine serum, and 2 mM glutamine) and incubated for 24 hours under hypoxic conditions (1% O2).
# The next day, tracing medium containing DMEM (01-057-1A) containing 75% charcoal stripped serum (Biological industries 04-201-1A), 3.5 μg/mL Biotin (Sigma-Aldrich B4639), 1 mM Pyruvate, 5.5 mM Glucose, 0.65 mM Glutamine and 0.5 mM ^13C-Acetate (Sigma-Aldrich #282014) with serial dilutions of the compounds in the range of 0.000512-1000 nM were prepared. The plating medium was replaced with 1 mL tracing medium plus compounds and the cells were incubated for 5 hours under hypoxic conditions (1% O2). Plating medium in control wells (without cells or without compounds) was replaced with 1 mL tracing medium containing 0.01% v/v DMSO.
# The level of ^13C-acetate incorporation into fatty acids (palmitate) was measured by LC-MS analysis and IC50 as described below:
# Sample Preparation for LC-MS
# • a) Cells were washed twice with cold phosphate buffered saline (PBS), scraped into 0.5 mL EDTA pH 8.0, and transferred into 1.1 mL V-shaped HPLC glass tubes. • b) The cell suspensions were centrifuged for 5 minutes at 400×g, 4° C. and the supernatants were removed. • c) Cell pellets were frozen at −80° C.
# • d) Cell pellets were resuspended in 0.2 mL of 80% v/v ethanol in water containing 0.02 M NaOH in 1.1 ml glass (v-bottom) HPLC vials. • e) The vials were closed tight and incubated at 66° C. for 60 minutes. • f) Acetonitrile containing 2% v/v formic acid (150 μL) was added to each vial and the mixtures were transferred to Eppendorf tubes for centrifugation at 17 000×g for 20 minutes. • g) Supernatants were transferred to LC-MS vials.
# The relative palmitate concentration was measured by LC-MS in reconstructed selected ion monitoring (RSIM) mode and negative ion mode. Samples were analyzed on a Phenomenex Kinetex 2.6 μm XB-C18 150×2.1 mm column at 45° C. (0.4 mL/minute flow rate) using: • a) A gradient from 15% A/85% C to 100% C for 0 to 2 minutes (A: water containing 5% v/v acetonitrile, 10 mM ammonium acetate, and 10 mM acetic acid; C: a mixture of 50% v/v acetonitrile and 50% v/v methanol). • b) Isocratic flow (100% C) for 2 to 5 minutes. • c) Equilibration in isocratic conditions (15% A/85% C) for 5 to 8 minutes.
# Palmitate was eluted at approximately 3.4 minutes.
# The percent inhibition was calculated relative to the sample without compound and after background deduction. IC50 values were calculated using non-linear regression curve fit analysis with 0% and 100% constraints (CDD Vault, Collaborative Drug Discovery, Inc. or GraphPad Prism).
# The inhibitory activities of each compound against ACSS2 in MDA-MB-468 cells under high serum conditions, as determined by ^13C-acetate incorporation into fatty acids (palmitate), are presented in Table 2.
# human ACSS2 protein = biological target: T3, human ACSS2 protein (Homo sapiens, UniProt Q9NR19); assay: ACSS2 cell-free activity assay (pyrophosphatase-coupled, Biomol green); conditions: 10 nM human ACSS2, 90 minutes at 37 C, absorbance at 620 nm; read-out: ACSS2 Biochemical IC50
# T3 construct: purchased OriGene Technologies, Inc
# Summary of the method: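 10 nM human ACSS2 incubated 90 min at 37 C with compound, 300 μM ATP, 10 μM CoA, 5 mM NaAc in pH 7.5 Hepes buffer with 0.5 U/ml pyrophosphatase. Released phosphate detected with Biomol Green at 620 nm; IC50 by non-linear regression constrained to 0% and 100%.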
# T2 sequence (Q9NR19 whole entry): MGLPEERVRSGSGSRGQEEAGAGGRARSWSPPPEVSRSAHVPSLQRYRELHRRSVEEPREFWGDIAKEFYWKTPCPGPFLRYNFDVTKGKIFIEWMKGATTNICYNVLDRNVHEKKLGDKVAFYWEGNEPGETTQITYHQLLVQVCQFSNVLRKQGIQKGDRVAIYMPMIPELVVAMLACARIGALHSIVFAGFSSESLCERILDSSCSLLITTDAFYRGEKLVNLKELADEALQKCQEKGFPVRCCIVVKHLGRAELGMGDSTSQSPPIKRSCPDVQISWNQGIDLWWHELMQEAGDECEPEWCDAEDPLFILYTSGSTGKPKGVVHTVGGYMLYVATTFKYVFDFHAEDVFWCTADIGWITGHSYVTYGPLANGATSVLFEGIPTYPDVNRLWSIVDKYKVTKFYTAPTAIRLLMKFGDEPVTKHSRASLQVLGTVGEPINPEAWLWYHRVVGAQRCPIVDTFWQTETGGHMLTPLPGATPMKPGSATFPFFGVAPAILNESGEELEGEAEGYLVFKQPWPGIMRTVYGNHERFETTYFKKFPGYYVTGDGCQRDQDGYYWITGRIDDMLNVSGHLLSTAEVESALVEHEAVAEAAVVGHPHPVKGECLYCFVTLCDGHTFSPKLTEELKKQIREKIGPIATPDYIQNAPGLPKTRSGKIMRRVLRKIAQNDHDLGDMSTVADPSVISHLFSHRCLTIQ
# T3 sequence (Q9NR19 whole entry): as above
ACSS1 Biochemical IC50 (nM) (human ACSS1 protein),IC50 [1] [nM],IC50 (human ACSS2 protein) [nM],IC50 (human ACSS1 protein) [nM],SMILES
Inactive,< 20,< 1,,"COc1ccc(-c2[nH]c(C)c(C(=O)Nc3cccc(C(C)(F)F)c3)[n+]2[O-])cc1-c1c(C)cccc1C [Compound 120, 4-((3-(1,1-difluoroethyl)phenyl)carbamoyl)-2-(6-methoxy-2′,6′-dimethyl-[1,1′-biphenyl]-3-yl)-5-methyl-1H-imidazole 3-oxide]"
Inactive,< 20,< 1,,"COc1ccc(-c2[nH]c(C)c(C(=O)Nc3cccc(-c4ncon4)c3)[n+]2[O-])cc1-c1c(C)cccc1C [Compound 190, 4-((3-(1,2,4-oxadiazol-3-yl)phenyl)carbamoyl)-2-(6-methoxy-2′,6′-dimethyl-[1,1′-biphenyl]-3-yl)-5-methyl-1H-imidazole 3-oxide]"
Inactive,< 20,< 1,,"CNC(=O)c1cccc(NC(=O)c2c(C)[nH]c(-c3ccc(OC)c(-c4c(F)cccc4F)c3)[n+]2[O-])c1 [Compound 184, 2-(2′,6′-difluoro-6-methoxy-[1,1′-biphenyl]-3-yl)-5-methyl-4-((3-(methylcarbamoyl)phenyl)carbamoyl)-1H-imidazole 3-oxide]"
Inactive,> 50,< 1,,"CCC(F)(F)c1cccc(NC(=O)c2c(C)[nH]c(-c3cc(C)cc(-c4c(C)cccc4C)c3)[n+]2[O-])c1 [Compound 106, 4-((3-(1,1-difluoropropyl)phenyl)carbamoyl)-5-methyl-2-(2′,5,6′-trimethyl-[1,1′-biphenyl]-3-yl)-1H-imidazole 3-oxide]"
Inactive,< 20,< 1,,"CNC(=S)c1cccc(NC(=O)c2c(C)[nH]c(-c3ccc(OC)c(-c4c(C)cccc4C)c3)[n+]2[O-])c1 [Compound 196, 2-(6-methoxy-2′,6′-dimethyl-[1,1′-biphenyl]-3-yl)-5-methyl-4-((3-(methylcarbamothioyl)phenyl)carbamoyl)-1H-imidazole 3-oxide]"
Inactive,> 50,< 1,,"CCC(F)(F)c1cccc(NC(=O)c2c(C)[nH]c(-c3cc(-c4c(C)cccc4C)c(OC)cn3)[n+]2[O-])c1 [Compound 157, 4-((3-(1,1-difluoropropyl)phenyl)carbamoyl)-2-(4-(2,6-dimethylphenyl)-5-methoxypyridin-2-yl)-5-methyl-1H-imidazole 3-oxide]"
Inactive,< 20,< 1,,"COc1ccc(-c2[nH]c(C)c(C(=O)Nc3cccc(C(N)=O)c3)[n+]2[O-])cc1-c1c(C)cccc1C [Compound 172, 4-((3-carbamoylphenyl)carbamoyl)-2-(6-methoxy-2′,6′-dimethyl-[1,1′-biphenyl]-3-yl)-5-methyl-1H-imidazole 3-oxide]"
Inactive,> 50,< 1,,"Cc1cccc(C)c1-c1cc(F)cc(-c2[nH]c(C)c(C(=O)Nc3cccc(C(F)(F)C4CC4)c3)[n+]2[O-])c1 [Compound 129, 4-((3-(cyclopropyldifluoromethyl)phenyl)carbamoyl)-2-(5-fluoro-2′,6′-dimethyl-[1,1′-biphenyl]-3-yl)-5-methyl-1H-imidazole 3-oxide]"
Inactive,> 50,< 1,,CCC(F)(F)c1cccc(NC(=O)c2c(C)[nH]c(-c3cc(-c4c(C)cccc4C)c(OC)cc3N)[n+]2[O-])c1 [Compound 124]
Inactive,20 to 50,< 1,,"Cc1cccc(C)c1-c1cc(-c2[nH]c(C)c(C(=O)Nc3cccc(C(F)(F)C4CC4)c3)[n+]2[O-])ccc1OC(F)F [Compound 113, N-[3-[cyclopropyl(difluoro)methyl]phenyl]-2-[4-(difluoromethoxy)-3-(2,6-dimethylphenyl)phenyl]-5-methyl-3-oxido-1H-imidazol-3-ium-4-carboxamide]"
Inactive,< 20,< 1,,"CNC(=O)c1cccc(NC(=O)c2c(C)[nH]c(-c3ccc(OC)c(-c4c(C)cccc4C)c3)[n+]2[O-])c1 [Compound 146, 2-(6-methoxy-2′,6′-dimethyl-[1,1′-biphenyl]-3-yl)-5-methyl-4-((3-(methylcarbamoyl)phenyl)carbamoyl)-1H-imidazole 3-oxide]"
,< 20,< 1,> 30,"CCC(F)(F)c1cccc(NC(=O)c2c(C)[nH]c(-c3ccc(C#N)c(-c4c(C)cccc4C)c3)[n+]2[O-])c1 [Compound 114, 2-(6-cyano-2′,6′-dimethyl-[1,1′-biphenyl]-3-yl)-4-((3-(1,1-difluoropropyl)phenyl)carbamoyl)-5-methyl-1H-imidazole 3-oxide]"
Inactive,20 to 50,< 1,,"Cc1cccc(C)c1-c1cc(-c2[nH]c(C)c(C(=O)Nc3cccc(C(F)(F)C4CC4)c3)[n+]2[O-])cc(C(C)O)c1 (stereo not drawn) [Compound 143, 4-((3-(cyclopropyldifluoromethyl)phenyl)carbamoyl)-2-(5-(1-hydroxyethyl)-2′,6′-dimethyl-[1,1′-biphenyl]-3-yl)-5-methyl-1H-imidazole 3-oxide]"
,< 20,< 1,> 30,"CNC(=O)c1cccc(NC(=O)c2c(C)[nH]c(-c3cccc(-c4c(C)cccc4C)c3)[n+]2[O-])c1 [Compound 176, 2-(2′,6′-dimethyl-[1,1′-biphenyl]-3-yl)-5-methyl-4-((3-(methylcarbamoyl)phenyl)carbamoyl)-1H-imidazole 3-oxide]"
Inactive,> 50,< 1,,COc1cc(F)c(-c2[nH]c(C)c(C(=O)Nc3cccc(C(F)(F)C4CC4)c3)[n+]2[O-])cc1-c1c(C)cccc1C [Compound 137]
